We go through 4 compounds from ChEMBL document CHEMBL3797105, “Investigation of triazole-linked indole and oxindole glycoconjugates as potential anticancer agents: novel Akt/PKB signaling pathway inhibitors” (Medchemcomm, 2016).

pIC50: −log10 of the molar value. Activity calls are given as the source filed them. The rule behind the calls is not given here.

Assay [1] in a line: Cytotoxicity against human DU145 cells after 48 hrs by sulforhodamine B assay. Conditions: DU-145, 48 h. It is filed as functional, cell-based.
Another assay deals with A549. Put plainly: Cytotoxicity against human A549 cells after 48 hrs by sulforhodamine B assay. It is filed as functional, cell-based. Conditions: A549, 48 h.
The next assay has as its system HeLa. Put plainly: Cytotoxicity against human HeLa cells after 48 hrs by sulforhodamine B assay. It is filed as functional, cell-based.
The subject of another assay is MCF7. Nature of the assay: Cytotoxicity against human MCF7 cells after 48 hrs by sulforhodamine B assay. It counts as functional, cell-based. Particulars: MCF7, 48 h.
Assay [2] concerns DU-145. Nature of the assay: Induction of morphological changes in human DU145 cells after 48 hrs by microscopic analysis. It is filed as functional, cell-based.
Assay [3] deals with DU-145. Put plainly: Inhibition of colony formation in human DU145 cells after 9 days by crystal violet staining based microscopic analysis. It is filed as functional, cell-based.
Assay [4] in a line: Cell cycle arrest in human DU145 cells assessed as accumulation at sub G1 phase at 5 uM after 48 hrs by propidium iodide staining based flow cytometry (reference value: 2.30%). It counts as functional. Particulars: DU-145. A general note: In flow cytometry, cells or beads pass a laser one at a time.
A short description of assay [5]: Cell cycle arrest in human DU145 cells assessed as accumulation at sub G1 phase at 10 uM after 48 hrs by propidium iodide staining based flow cytometry (reference value: 2.30%). It counts as functional. Conditions: DU-145.
Assay [6] can be described thus: Cell cycle arrest in human DU145 cells assessed as accumulation at sub G1 phase at 15 uM after 48 hrs by propidium iodide staining based flow cytometry (reference value: 2.30%). It counts as functional. Conditions: DU-145.
Assay [7] can be described thus: Cell cycle arrest in human DU145 cells assessed as accumulation at sub G1 phase at 20 uM after 48 hrs by propidium iodide staining based flow cytometry (reference value: 2.30%). Particulars: DU-145. It counts as functional.
Assay [8] is described as follows: Cell cycle arrest in human DU145 cells assessed as accumulation at sub G1 phase at 25 uM after 48 hrs by propidium iodide staining based flow cytometry (reference value: 2.30%). Particulars: DU-145. It counts as functional.
Assay [9] in a line: Cell cycle arrest in human DU145 cells assessed as accumulation at G0/G1 phase at 5 uM after 48 hrs by propidium iodide staining based flow cytometry (reference value: 61.28%). It counts as functional. Particulars: DU-145.
A short description of assay [10]: Cell cycle arrest in human DU145 cells assessed as accumulation at G0/G1 phase at 10 uM after 48 hrs by propidium iodide staining based flow cytometry (reference value: 61.28%). Conditions: DU-145. It is filed as functional.
The nature of assay [11]: Cell cycle arrest in human DU145 cells assessed as accumulation at G0/G1 phase at 15 uM after 48 hrs by propidium iodide staining based flow cytometry (reference value: 61.28%). It counts as functional. Particulars: DU-145.
The nature of assay [12]: Cell cycle arrest in human DU145 cells assessed as accumulation at G0/G1 phase at 20 uM after 48 hrs by propidium iodide staining based flow cytometry (reference value: 61.28%). It is filed as functional. Particulars: DU-145.
Assay [13] in a line: Cell cycle arrest in human DU145 cells assessed as accumulation at G0/G1 phase at 25 uM after 48 hrs by propidium iodide staining based flow cytometry (reference value: 61.28%). It counts as functional. Conditions: DU-145.
Assay [14] can be described thus: Cell cycle arrest in human DU145 cells assessed as accumulation at S phase at 5 uM after 48 hrs by propidium iodide staining based flow cytometry (reference value: 8.62%). It counts as functional. Particulars: DU-145.
Assay [15] can be described thus: Cell cycle arrest in human DU145 cells assessed as accumulation at S phase at 10 uM after 48 hrs by propidium iodide staining based flow cytometry (reference value: 8.62%). It counts as functional. Particulars: DU-145.
The nature of assay [16]: Cell cycle arrest in human DU145 cells assessed as accumulation at S phase at 15 uM after 48 hrs by propidium iodide staining based flow cytometry (reference value: 8.62%). Conditions: DU-145. It is filed as functional.
Assay [17] is described as follows: Cell cycle arrest in human DU145 cells assessed as accumulation at S phase at 20 uM after 48 hrs by propidium iodide staining based flow cytometry (reference value: 8.62%). It counts as functional. Conditions: DU-145.
Assay [18] is described as follows: Cell cycle arrest in human DU145 cells assessed as accumulation at S phase at 25 uM after 48 hrs by propidium iodide staining based flow cytometry (reference value: 8.62%). It counts as functional. Conditions: DU-145.
Assay [19] is described as follows: Cell cycle arrest in human DU145 cells assessed as accumulation at G2/M phase at 5 uM after 48 hrs by propidium iodide staining based flow cytometry (reference value: 15.81%). It counts as functional. Conditions: DU-145.
The nature of assay [20]: Cell cycle arrest in human DU145 cells assessed as accumulation at G2/M phase at 10 uM after 48 hrs by propidium iodide staining based flow cytometry (reference value: 15.81%). Particulars: DU-145. It counts as functional.
Assay [21] is described as follows: Cell cycle arrest in human DU145 cells assessed as accumulation at G2/M phase at 15 uM after 48 hrs by propidium iodide staining based flow cytometry (reference value: 15.81%). It is filed as functional. Particulars: DU-145.
Assay [22] is described as follows: Cell cycle arrest in human DU145 cells assessed as accumulation at G2/M phase at 20 uM after 48 hrs by propidium iodide staining based flow cytometry (reference value: 15.81%). It is filed as functional. Particulars: DU-145.
Assay [23] is described as follows: Cell cycle arrest in human DU145 cells assessed as accumulation at G2/M phase at 25 uM after 48 hrs by propidium iodide staining based flow cytometry (reference value: 15.81%). It counts as functional. Conditions: DU-145.
The test system of assay [24] is DU-145. Put plainly: Induction of apoptosis in human DU145 cells assessed as activation of caspase 8 using Ac-VETD-AMC as substrate preincubated for 48 hrs followed by substrate addition measured after 2 hrs by fluorescence analysis. It counts as functional, cell-based.
Assay [25] concerns DU-145. Nature of the assay: Induction of apoptosis in human DU145 cells assessed as activation of caspase 9 using […] as substrate preincubated for 48 hrs followed by substrate addition measured after 2 hrs by fluorescence analysis. It counts as functional, cell-based.
For assay [26], the system named is DU-145. Nature of the assay: Induction of apoptosis in human DU145 cells assessed as activation of caspase 3 using Ac-DEVD AMC as substrate at 5 to 25 uM preincubated for 48 hrs followed by substrate addition measured after 2 hrs by fluorescence analysis. It is filed as functional, cell-based.
For assay [27], the system named is DU-145. Put plainly: Inhibition of Akt phosphorylation in human DU145 cells after 48 hrs by Western blot analysis. It is filed as cell-based.
The test system of assay [28] is DU-145. Nature of the assay: Inhibition of Akt in human DU145 cells assessed as increase in p27Kip1 levels after 48 hrs by Western blot analysis. It is filed as cell-based. Background: A western blot detects proteins with antibodies after separation by electrophoresis.
The nature of assay [29]: Cytotoxicity against mouse NIH/3T3 cells after 48 hrs by sulforhodamine B assay. Particulars: NIH3T3, 48 h. Background: Sulforhodamine B stains cellular protein and so reports cell mass.

As a reminder, the pIC50 is −log10 of the IC50, conventionally taken in molar units. Low readings indicate a high IC50, high ones a low IC50.

On to `CC(=O)OC[C@H]1O[C@@H](n2cc(CN3C(=O)/C(=C/c4ccc(C)cc4)c4ccccc43)nn2)[C@H](OC(C)=O)[C@@H](OC(C)=O)[C@@H]1OC(C)=O`, for which the pIC50 is 5.03 in assay [1]; 4.80 with A549; 4.07 with HeLa; less than 4.00 in the assay on MCF7; 4.13 in assay [29]. Further, the Activity result in the assay on DU-145 [2] is “Dose-dependent effect”; in assay [4], 7.12%; in assay [5], 14.4%; in assay [6] it was 17.2%; in [7], 34.3%; in assay [8], 37.5%. Besides, the Activity in assay [9] turned out to be 59.1%; in assay [10], 48.1%; in assay [11], 46.6%; in [12], 40.5%; in assay [13], 41.4%; in assay [14], 6.85%. In addition, the Activity was determined as 7.56% in [15]; 7.64% in assay [16]; 5.72% in [17]; 4.86% in [18]; 12.6% in [19]; 16.7% in [20]. Moreover, the Activity in assay [21] was 14.9%; in [22], 10.9%; in assay [23] it was 9.05%; in the assay on DU-145 [24] it was “Dose-dependent effect”; in the assay on DU-145 [25] it was “Dose-dependent effect”. The inhibition entry in the assay on DU-145 [3] and with DU-145 [28] was “Dose-dependent effect” throughout. Moreover, the result in the assay with DU-145 [26] was Active. Further, the inhibition result in the assay with DU-145 [27] is “Active”.
For `CC(=O)OC[C@H]1O[C@@H](n2cc(Cn3cc(/C=C/C(=O)c4ccccc4)c4ccccc43)nn2)[C@H](OC(C)=O)[C@@H](OC(C)=O)[C@@H]1OC(C)=O`, the negative-log IC50 (pIC50) in assay [1] was 4.84; with A549 it was 4.79; with HeLa, 4.48; with MCF7, 4.62; in [29], less than 3.70. Besides, the Activity result in the assay on DU-145 [2] is “Dose-dependent effect”; in assay [4], 4.53%; in [5], 43.7%; in [6] it was 54%; in assay [7], 82.4%; in assay [8], 84.1%. In addition, the Activity in assay [9] was 75%; in assay [10], 21.2%; in assay [11] it was 21.5%; in [12] it was 12.9%; in [13], 12%; in assay [14] it was 4.72%. Besides, the Activity in assay [15] was 4.41%; in assay [16] it was 3.82%; in assay [17] it was 1.34%; in assay [18] it was 0.8%; in [19], 8.22%; in [20], 16.2%. For the same compound, the Activity in assay [21] was 11.9%; in assay [22], 1.87%; in assay [23], 1.01%; with DU-145 [24], “Dose-dependent effect”; with DU-145 [25] it was “Dose-dependent effect”. Also, the inhibition result in the assay on DU-145 [3] and with DU-145 [28] was “Dose-dependent effect” throughout. For the same compound, in the assay on DU-145 [26], the result was Active. Also, the inhibition result with DU-145 [27] is “Active”.
For `COc1ccc2c(c1)c(/C=N/O)cn2Cc1cn([C@@H]2O[C@H](COC(C)=O)[C@@H](OC(C)=O)[C@H](OC(C)=O)[C@H]2OC(C)=O)nn1`, the pIC50 was 4.05 in assay [1]; less than 3.70 in the assay with A549; less than 3.70 in the assay on HeLa; 4.29 in the assay on MCF7; 4.58 in [29].
Consider `CC(=O)OC[C@H]1O[C@@H](n2cc(CN3C(=O)/C(=C\C=C\c4ccccc4)c4ccccc43)nn2)[C@H](OC(C)=O)[C@@H](OC(C)=O)[C@@H]1OC(C)=O`, for which the negative-log IC50 (pIC50) was 4.71 in assay [1]; 4.23 in the assay on A549; 4.01 with HeLa; 4.47 in the assay with MCF7; 4.59 in [29].
